Source: article PMC9643456, “Matching amino acids membrane preference profile to improve activity of antimicrobial peptides” (Communications Biology, 2022)
≈ marks a conversion by molar mass, not a printed value. Where “and” joins values, the source holds several entries; their conditions need not be identical. Equal values may be shown once. Square brackets hold non-standard residues; d marks the D form. Ends that are not written are not given here. Peptide text beside a SMILES is read from it.

Tests used:
MDR A. baumannii = assay: microbe, parasite or virus in culture; conditions: for MIC in 0.2% albumin and 0.01% AcOH added CLSI standard condition, MDR A. baumannii: CAMHB plus 0.2% bovine serum albumin and 0.01% acetic acid, values marked * in Table 2; for Minimum inhibitory concentrations, MDR A. baumannii: CLSI broth microdilution, CAMHB with 50 mg/L Ca2+, 10 mg/L Mg2+, 5 × 10^5 CFU/ml, 18 h 37 °C, triplicate, strain ATCC BAA-1605
Summary of the method: (§1)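 CLSI broth microdilution used CAMHB supplemented with Ca (50 mg/L) and Mg (10 mg/L); runs in triplicate against meropenem/colistin controls.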

MDR P. aeruginosa = assay: microbe, parasite or virus in culture; conditions: for MIC in 0.2% albumin and 0.01% AcOH added CLSI standard condition, MDR P. aeruginosa: CAMHB plus 0.2% bovine serum albumin and 0.01% acetic acid, values marked * in Table 2; for Minimum inhibitory concentrations, MDR P. aeruginosa: CLSI broth microdilution, CAMHB with 50 mg/L Ca2+, 10 mg/L Mg2+, 5 × 10^5 CFU/ml, 18 h 37 °C, no visible turbidity, triplicate, strain CCARM 2180
Summary of the method: as §1

human red blood cells = assay: Hemolytic activity; assay type: cell-based
Summary of the method: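 Peptides (100 μM down to 0.78 μM) were incubated with 4% final human erythrocytes in PBS for 18 h at 37 °C. Supernatant absorbance at 540 nm after centrifugation was scaled to 1% Triton X-100 (100%) and no peptide (0%); melittin served as positive control; triplicate runs.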

MDR E. faecalis = assay: microbe, parasite or virus in culture; conditions: for MIC in 0.2% albumin and 0.01% AcOH added CLSI standard condition, MDR E. faecalis: CAMHB plus 0.2% bovine serum albumin and 0.01% acetic acid, values marked * in Table 2; for Minimum inhibitory concentrations, MDR E. faecalis: CLSI broth microdilution, CAMHB with 50 mg/L Ca2+, 10 mg/L Mg2+, 5 × 10^5 CFU/ml, 18 h 37 °C, triplicate, strain ATCC 51575
Summary of the method: as §1

MDR S. aureus = assay: microbe, parasite or virus in culture; conditions: for MIC in 0.2% albumin and 0.01% AcOH added CLSI standard condition, MDR S. aureus: CAMHB plus 0.2% bovine serum albumin and 0.01% acetic acid, values marked * in Table 2; for MIC at TM potential condition, S. aureus KCCM 40510: bacteria OD 0.1 (5 x 10^7 cfu/ml), CAMHB, 1% DMSO; for Minimum inhibitory concentrations, MDR S. aureus: CLSI broth microdilution, CAMHB with 50 mg/L Ca2+, 10 mg/L Mg2+, 5 × 10^5 CFU/ml, 18 h 37 °C, triplicate, strain KCCM 40510
Summary of the method: as §1

DMPC:DMPG liposomes = assay: Isothermal titration calorimetry, peptide-liposome interaction; assay type: binding; conditions: ITC, PBS, 37 °C
Procedure: Liposomes were prepared using 1,2-dimyristoyl-sn-glycero-3-(phospho-rac-(1-glycerol)) (sodium salt) (DMPG) (Avanti, Alabama, USA); 1,2-dimyristoyl-sn-glycero-3-phosphocholine (DMPC) (Avanti); and cholesterol (Sigma, Darmstadt, Germany) were used. Bacterial membrane mimic DMPC/DMPG (7/3) unilamellar vesicles (LUVs), and mammalian membrane mimic DMPC/cholesterol (10/1) vesicles with 100-nm diameters were prepared using the freeze-thaw and extrusion method. Lipids were mixed and dissolved in methanol in round-bottomed flasks then evaporated and freeze-dried overnight, yielding a thin layer of lipid covering the glass wall. PBS was added to the lipid layer, after which the PBS-lipid layer was vortexed then frozen in liquid nitrogen and thawed in 50 °C water repeatedly until no visible layer remained. LiposoFast Liposome Factory Basic unit with stabilizer (Avestin, Ottawa, Canada) was then used to extrude the liposomes 50 times through a polycarbonate membrane filter (pore diameter, 100 nm; filter diameter, 0.75 inches) (Avestin). For circular dichroism, isothermal titration calorimetry, tryptophan fluorescence, and dynamic light scattering experiments, liposomes were reconstructed and resuspended in PBS (Welgene Inc, Gyeongsangbuk-do, Korea).
PC/PG liposome stock solutions and peptide solutions were diluted in PBS and degassed for 30 min. Peptide solutions (2 ml, 40 μM) were then loaded into a VP-ITC MicroCalorimeter (MicroCal, Northampton, USA). Liposome samples (600 μl, 2000 μM) were injected into the VP-ITC using a syringe. Measurement parameters were as follows: cell temperature, 37 °C; total injections, 30; reference power, 10; initial delay, 300; stirring speed, 300; edit mode, 10.0/12.0/200/2. Liposome solution (10 μl) was injected into the peptide solution 30 times. Each experiment was performed in duplicate. The results were calculated using MicroCal analysis.

Colistin
MIC in 0.2% albumin and 0.01% AcOH added CLSI standard condition, MDR A. baumannii (MDR A. baumannii): ≤ 0.15 µM
MIC in 0.2% albumin and 0.01% AcOH added CLSI standard condition, MDR P. aeruginosa (MDR P. aeruginosa): ≤ 0.15 µM
Minimum inhibitory concentrations, MDR P. aeruginosa (MDR P. aeruginosa): 1.25 µM and 0.63 µM
Hemolysis percent, 25 μM (human red blood cells; peptide 25 μM, 8% human red blood cells in PBS (final 4%), 18 h 37 °C, absorbance 540 nm, 1% Triton X-100 = 100%, triplicate): 0.24 ±0.09%
Hemolysis percent, 50 μM (human red blood cells; peptide 50 μM, 8% human red blood cells in PBS (final 4%), 18 h 37 °C, absorbance 540 nm, 1% Triton X-100 = 100%, triplicate): 0.31%
Hemolysis percent, 100 μM (human red blood cells; peptide 100 μM, 8% human red blood cells in PBS (final 4%), 18 h 37 °C, absorbance 540 nm, 1% Triton X-100 = 100%, triplicate): 0.39 ±0.06%

RLWWRWIVR-NH2 [HLWCopW29-4]
MIC in 0.2% albumin and 0.01% AcOH added CLSI standard condition, MDR A. baumannii (MDR A. baumannii): 20 µM
MIC in 0.2% albumin and 0.01% AcOH added CLSI standard condition, MDR E. faecalis (MDR E. faecalis): 20 µM
MIC in 0.2% albumin and 0.01% AcOH added CLSI standard condition, MDR P. aeruginosa (MDR P. aeruginosa): > 20 µM
Minimum inhibitory concentrations, MDR P. aeruginosa (MDR P. aeruginosa): > 20 µM
MIC in 0.2% albumin and 0.01% AcOH added CLSI standard condition, MDR S. aureus (MDR S. aureus): 20 µM
MIC at TM potential condition, S. aureus KCCM 40510 (MDR S. aureus): > 20 µM
Hemolysis percent, 25 μM (human red blood cells; red cells of human, 18 h, 25): 1.02 ±0.01%
Hemolysis percent, 50 μM (human red blood cells; red cells of human, 18 h, 50): 1.08 ±0.04%
Hemolysis percent, 100 μM (human red blood cells; red cells of human, 18 h, 100): 2.47 ±0.03%
ΔS (DMPC:DMPG liposomes; 2nd run): -23.6 cal/moldeg

CC[C@@H](C)[C@@H](NC(=O)[C@@H](Cc1c[nH]c2ccccc12)NC(=O)[C@@H](CCCNC(=N)N)NC(=O)[C@@H](CCCNC(=N)N)NC(=O)[C@H](N)CCCNC(=N)N)C(=O)N[C@H](Cc1c[nH]c2ccccc12)C(=O)N[C@@H](C(=O)N[C@@H](C(=O)N[C@H](Cc1c[nH]c2ccccc12)C(=O)N[C@H](CCCCN)C(N)=O)[C@H](C)CC)C(C)C [WCopW43] (H-[dR][dR][dR][dW][dI][dW][dV][dI][dW][dK]-NH2)
Minimum inhibitory concentrations, MDR A. baumannii (MDR A. baumannii): 0.63 µM (≈ 0.944 µg/mL)
Minimum inhibitory concentrations, MDR P. aeruginosa (MDR P. aeruginosa): 1.25 µM (≈ 1.87 µg/mL)
Minimum inhibitory concentrations, MDR S. aureus (MDR S. aureus): 0.63 µM (≈ 0.944 µg/mL)
Hemolysis percent, 25 μM (human red blood cells; red cells of human, 18 h, 25): 1.12 ± 0.20%
Hemolysis percent, 50 μM (human red blood cells; red cells of human, 18 h, 50): 2.22 ± 0.67%
Hemolysis percent, 100 μM (human red blood cells; red cells of human, 18 h, 100): 5.02 ±0.63%

CC[C@@H](C)[C@@H](NC(=O)[C@@H](Cc1c[nH]c2ccccc12)NC(=O)[C@H](NC(=O)[C@@H](CC(C)C)NC(=O)[C@H](N)Cc1c[nH]c2ccccc12)C(C)C)C(=O)N[C@H](Cc1c[nH]c2ccccc12)C(=O)N[C@H](CCCNC(=N)N)C(=O)N[C@H](CCCNC(=N)N)C(=O)N[C@H](CCCNC(=N)N)C(N)=O [WCopW29] (H-[dW][dL][dV][dW][dI][dW][dR][dR][dR]-NH2)
MIC at different cfu/ml, MDR A. baumannii (MDR A. baumannii; 1 × 10^10 cfu/ml (x2000)): 10 µM (≈ 13.7 µg/mL)
MIC at different cfu/ml, MDR A. baumannii (MDR A. baumannii; 2 × 10^8 cfu/ml (x400)): 2.5 µM (≈ 3.42 µg/mL)
MIC at killing kinetics condition, A. baumannii ATCC BAA 1605 (MDR A. baumannii; 5 x 10^5 cfu/ml, PBS): 0.63 µM (≈ 0.863 µg/mL)
MIC at different cfu/ml, MDR E. faecalis (MDR E. faecalis; 2 × 10^8 cfu/ml (x400)): 2.5 µM (≈ 3.42 µg/mL)
MIC at killing kinetics condition, E. faecalis ATCC 51575 (MDR E. faecalis; 5 x 10^5 cfu/ml, PBS): 1.25 µM (≈ 1.71 µg/mL)
MIC in 0.2% albumin and 0.01% AcOH added CLSI standard condition, MDR E. faecalis (MDR E. faecalis): 0.31 µM
Minimum inhibitory concentrations, MDR E. faecalis (MDR E. faecalis): 1.25 µM (≈ 1.71 µg/mL)
MIC at different cfu/ml, MDR P. aeruginosa (MDR P. aeruginosa; 2 × 10^8 cfu/ml (x400)): 5 µM (≈ 6.85 µg/mL)
MIC at killing kinetics condition, P. aeruginosa CCARM 2180 (MDR P. aeruginosa; 5 x 10^5 cfu/ml, PBS): 5 µM (≈ 6.85 µg/mL)
MIC in 0.2% albumin and 0.01% AcOH added CLSI standard condition, MDR P. aeruginosa (MDR P. aeruginosa): 5 µM
MIC at different cfu/ml, MDR S. aureus (MDR S. aureus; 1 × 10^10 cfu/ml (x2000)): 5 µM (≈ 6.85 µg/mL)
MIC at different cfu/ml, MDR S. aureus (MDR S. aureus; 2 × 10^8 cfu/ml (x400)): 2.5 µM (≈ 3.42 µg/mL)
MIC at killing kinetics condition, S. aureus KCCM 40510 (MDR S. aureus; 5 x 10^5 cfu/ml, PBS): 1.25 µM (≈ 1.71 µg/mL)
MIC in 0.2% albumin and 0.01% AcOH added CLSI standard condition, MDR S. aureus (MDR S. aureus): 0.31 µM
Minimum inhibitory concentrations, MDR S. aureus (MDR S. aureus): 1.25 µM (≈ 1.71 µg/mL)
Increase of MIC when the S. aureus concentration was increased 200-fold (MDR S. aureus): twofold
MIC at TM potential condition, S. aureus KCCM 40510 (MDR S. aureus): 2 µM (≈ 2.74 µg/mL)
ΔS (DMPC:DMPG liposomes; run shown in Fig. 2a or run not numbered): 18.2 cal/mol deg

WLVWIWRRR-NH2 [LWCopW29]
MIC in 0.2% albumin and 0.01% AcOH added CLSI standard condition, MDR A. baumannii (MDR A. baumannii): 0.31 µM
Minimum inhibitory concentrations, MDR A. baumannii (MDR A. baumannii): 1.25 µM
MIC in 0.2% albumin and 0.01% AcOH added CLSI standard condition, MDR E. faecalis (MDR E. faecalis): 1.25 µM
Minimum inhibitory concentrations, MDR E. faecalis (MDR E. faecalis): 5 µM
MIC in 0.2% albumin and 0.01% AcOH added CLSI standard condition, MDR P. aeruginosa (MDR P. aeruginosa): 20 µM
Minimum inhibitory concentrations, MDR P. aeruginosa (MDR P. aeruginosa): > 20 µM
MIC in 0.2% albumin and 0.01% AcOH added CLSI standard condition, MDR S. aureus (MDR S. aureus): 1.25 µM
Minimum inhibitory concentrations, MDR S. aureus (MDR S. aureus): 5 µM
Increase of MIC when the S. aureus concentration was increased 200-fold (MDR S. aureus): twofold
Hemolysis percent, 25 μM (human red blood cells; red cells of human, 18 h, 25): 0.84 ±0.06%
Hemolysis percent, 50 μM (human red blood cells; red cells of human, 18 h, 50): 5.15 ±0.15%
Hemolysis percent, 100 μM (human red blood cells; red cells of human, 18 h, 100): 13.65 ±0.74%
ΔS (DMPC:DMPG liposomes; 1st run): 19.4 cal/moldeg
ΔS (DMPC:DMPG liposomes; 2nd run): 19.4 cal/moldeg
